# Test results published in patent US10610520B2, “Heterocyclic compound” (Takeda Pharmaceutical Company Limited, priority 2016, dated 2020).
# Biological target: T1, His-hMAGL (recombinant polyhistidine tagged human MAGL protein) (Homo sapiens, UniProt Q99685)
# T1 construct: made in house; host or cells: E. coli BL21(DE3)
# T1 sequence (Q99685 1-303): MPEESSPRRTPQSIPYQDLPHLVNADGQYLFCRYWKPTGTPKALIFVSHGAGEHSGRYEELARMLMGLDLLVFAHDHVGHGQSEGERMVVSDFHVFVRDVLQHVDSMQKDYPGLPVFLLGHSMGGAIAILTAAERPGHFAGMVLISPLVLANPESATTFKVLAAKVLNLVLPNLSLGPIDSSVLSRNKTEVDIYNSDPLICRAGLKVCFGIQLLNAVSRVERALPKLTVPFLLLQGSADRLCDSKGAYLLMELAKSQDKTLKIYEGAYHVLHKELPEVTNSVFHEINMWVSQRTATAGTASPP
# Test: Measurement of MAGL inhibitory activity (arachidonic acid production from 2-arachidonylglycerol, RapidFire-mass spectrometry)
# Assay type: biochemical
# Conditions: MAGL inhibitory rate, test compound 10 μM, 60 min preincubation, 2-arachidonylglycerol substrate
# Outline: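 Arachidonic acid formed was quantified by online solid-phase extraction and triple-quadrupole MS in negative SRM mode against a d8 internal standard. Reaction: recombinant His-hMAGL (7.5 ng/mL, pH 7.5 Tris buffer with Triton X-100 and BSA) plus 2-AG (5 μL of 150 μM stock) for 10 min at room temperature, quenched with 2% formic acid. Percent inhibition corrected for enzyme-free background.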
row,inhibition at 10 µM [%],SMILES
1,98,"O=C1CCC2(CN(C(=O)N3CCC(Cc4ccc(C(F)(F)F)cc4Cl)CC3)C2)N1 [Example 107, 2-((4-(2-chloro-4-(trifluoromethyl)benzyl)piperidin-1-yl)carbonyl)-2,5-diazaspiro[3.4]octan-6-one]"
2,101,"O=C1NC2(CO1)CN(C(=O)c1sc3cc(OC(F)(F)F)cc(Cl)c3c1Cl)C2 [Example 293, 2-((3,4-dichloro-6-(trifluoromethoxy)-1-benzothiophen-2-yl)carbonyl)-7-oxa-2,5-diazaspiro[3.4]octan-6-one]"
3,100,"O=C1CCC2(CN(C(=O)c3sc4cc(OC(F)F)ccc4c3Cl)C2)N1 [Example 260, 2-((3-chloro-6-(difluoromethoxy)-1-benzothiophen-2-yl)carbonyl)-2,5-diazaspiro[3.4]octan-6-one]"
4,87,"O=C1CCC2(CN(C(=O)c3cc4ccc(OCc5ccc(Cl)cc5Cl)cc4s3)C2)N1 [Example 145, 2-((6-((2,4-dichlorobenzyl)oxy)-1-benzothiophen-2-yl)carbonyl)-2,5-diazaspiro[3.4]octan-6-one]"
5,100,"O=C1CCC2(CN(C(=O)c3ccc(-c4csc5ccccc45)cc3)C2)N1 [Example 67, 2-(4-(1-benzothiophen-3-yl)benzoyl)-2,5-diazaspiro[3.4]octan-6-one]"
6,99,"O=C1CCC2(CN(C(=O)c3sc4cc(F)ccc4c3Cl)C2)N1 [Example 140, 2-((3-chloro-6-fluoro-1-benzothiophen-2-yl)carbonyl)-2,5-diazaspiro[3.4]octan-6-one]"
7,98,"CC(Oc1ccc(F)cc1Cl)C1CN(C(=O)N2CC3(CCC(=O)N3)C2)C1 (stereo not drawn) [Example 4, 2-((3-(1-(2-chloro-4-fluorophenoxy)ethyl)azetidin-1-yl)carbonyl)-2,5-diazaspiro[3.4]octan-6-one]"
8,104,"O=C1CCC2(CN(C(=O)c3sc4cc(C(F)(F)F)ccc4c3Cl)C2)N1 [Example 20, 2-((3-chloro-6-(trifluoromethyl)-1-benzothiophen-2-yl)carbonyl)-2,5-diazaspiro[3.4]octan-6-one]"
9,101,"Cc1sccc1-c1ccc2c(Cl)c(C(=O)N3CC4(CCC(=O)N4)C3)sc2c1 [Example 234, 2-((3-chloro-6-(2-methyl-3-thienyl)-1-benzothiophen-2-yl)carbonyl)-2,5-diazaspiro[3.4]octan-6-one]"
10,102,"Cc1cc(F)ccc1-c1ccc(OCC2CN(C(=O)N3CC4(CCC(=O)N4)C3)C2)c(F)c1 [Example 23, 2-((3-(((3,4′-difluoro-2′-methylbiphenyl-4-yl)oxy)methyl)azetidin-1-yl)carbonyl)-2,5-diazaspiro[3.4]octan-6-one]"
11,100,"Cc1c(OC(F)(F)F)ccc2c(Cl)c(C(=O)N3CC4(COC(=O)N4)C3)sc12 [Example 286, 2-((3-chloro-7-methyl-6-(trifluoromethoxy)-1-benzothiophen-2-yl)carbonyl)-7-oxa-2,5-diazaspiro[3.4]octan-6-one]"
12,98,"O=C1CCC2(CN(C(=O)[C@H]3C[C@H](COc4ccc(F)cc4Cl)C3)C2)N1 [Example 26, 2-((trans-3-((2-chloro-4-fluorophenoxy)methyl)cyclobutyl)carbonyl)-2,5-diazaspiro[3.4]octan-6-one]"
13,101,"O=C1NC2(CO1)CN(C(=O)c1sc3cc(C(F)F)ccc3c1Cl)C2 [Example 278, 2-((3-chloro-6-(difluoromethyl)-1-benzothiophen-2-yl)carbonyl)-7-oxa-2,5-diazaspiro[3.4]octan-6-one]"
14,103,"CC(Oc1ccc(F)cc1Cl)C1CCN(C(=O)N2CC3(CCC(=O)N3)C2)CC1 (stereo not drawn) [Example 7, 2-((4-(1-(2-chloro-4-fluorophenoxy)ethyl)piperidin-1-yl)carbonyl)-2,5-diazaspiro[3.4]octan-6-one]"
15,100,"Cc1cscc1-c1ccc2c(Cl)c(C(=O)N3CC4(CCC(=O)N4)C3)sc2c1 [Example 236, 2-((3-chloro-6-(4-methyl-3-thienyl)-1-benzothiophen-2-yl)carbonyl)-2,5-diazaspiro[3.4]octan-6-one]"
